Several values for one entry are separate records, joined by “and”; a condition that tells them apart may be missing. Identical values can stand only once. Toxic doses and inconclusive results are not listed. The calls were made as follows: active = survival T/C of 150% or more; inactive = T/C below 125% in these data.
Test system: P388 leukemia ip, CD2F1 mice, survival T/C
Experiment: NCI In Vivo Anticancer Drug Screen. Data for tumor model P388 Leukemia (intraperitoneal) in CD2F1 (CDF1) mice
Conditions: endpoint: median survival time, higher = longer survival
How it was run: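 Mice carrying the transplanted tumor received test compound or vehicle. Survival was recorded in each group, and the value is the treated-group measurement divided by that of the vehicle-treated control group.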

[1] = dose: 12.5 mg/kg/injection, schedule: Q01DX009 (ip), vehicle: saline with Tween-80
[2] = dose: 50.0 mg/kg/injection, schedule: Q01DX009 (ip), vehicle: saline with Tween-80
[3] = dose: 100.0 mg/kg/injection, schedule: Q01DX009 (ip), vehicle: saline with Tween-80
[4] = dose: 50.0 mg/kg/injection, schedule: Q01DX009 (ip), vehicle: Klucel (hydroxypropylcellulose) (HPC)
[5] = dose: 100.0 mg/kg/injection, schedule: Q01DX009 (ip), vehicle: Klucel (hydroxypropylcellulose) (HPC)
[6] = dose: 200.0 mg/kg/injection, schedule: Q01DX009 (ip), vehicle: Klucel (hydroxypropylcellulose) (HPC)
[7] = dose: 50.0 mg/kg/injection, schedule: Q01DX009 (ip), vehicle: saline
[8] = dose: 100.0 mg/kg/injection, schedule: Q01DX009 (ip), vehicle: saline
[9] = dose: 200.0 mg/kg/injection, schedule: Q01DX009 (ip), vehicle: saline
[10] = dose: 50.0 mg/kg/injection, schedule: Q01DX005 (ip), vehicle: saline with Tween-80
[11] = dose: 100.0 mg/kg/injection, schedule: Q01DX005 (ip), vehicle: saline with Tween-80
[12] = dose: 100.0 mg/kg/injection, schedule: Q04DX003 (ip), vehicle: saline with Tween-80
[13] = dose: 200.0 mg/kg/injection, schedule: Q01DX005 (ip), vehicle: saline with Tween-80
[14] = dose: 200.0 mg/kg/injection, schedule: Q01DX009 (ip), vehicle: saline with Tween-80
[15] = dose: 200.0 mg/kg/injection, schedule: Q04DX003 (ip), vehicle: saline with Tween-80
[16] = dose: 50.0 mg/kg/injection, schedule: Q01DX005 (ip), vehicle: Klucel (hydroxypropylcellulose) (HPC)
[17] = dose: 100.0 mg/kg/injection, schedule: Q01DX005 (ip), vehicle: Klucel (hydroxypropylcellulose) (HPC)

Measured: T/C

CCCCCCCCCCCC(=O)OCCN1CCN(CCCN2c3ccccc3Sc3ccc(C(F)(F)F)cc32)CC1
inactive: dose: 0.78 mg/kg/injection, schedule: Q01DX009 (ip), vehicle: saline with Tween-80 108 % of control | dose: 1.56 mg/kg/injection, schedule: Q01DX009 (ip), vehicle: saline with Tween-80 104 % of control | dose: 3.12 mg/kg/injection, schedule: Q01DX009 (ip), vehicle: saline with Tween-80 105 % of control and 93 % of control | dose: 6.25 mg/kg/injection, schedule: Q01DX009 (ip), vehicle: saline with Tween-80 107 % of control | [1] 101 % of control and 107 % of control | dose: 25.0 mg/kg/injection, schedule: Q01DX009 (ip), vehicle: saline with Tween-80 106 % of control | [2] 114 % of control | [3] 97 % of control

COc1ccc2c(c1O)-c1c(OC)c(O)cc3c1C(C2)NCC3 (stereo not given)
inactive: dose: 32.0 mg/kg/injection, schedule: Q01DX009 (ip), vehicle: Klucel (hydroxypropylcellulose) (HPC) 96 % of control | dose: 64.0 mg/kg/injection, schedule: Q01DX009 (ip), vehicle: Klucel (hydroxypropylcellulose) (HPC) 93 % of control | dose: 128.0 mg/kg/injection, schedule: Q01DX009 (ip), vehicle: Klucel (hydroxypropylcellulose) (HPC) 100 % of control | dose: 256.0 mg/kg/injection, schedule: Q01DX009 (ip), vehicle: Klucel (hydroxypropylcellulose) (HPC) 102 % of control

COc1ccc(-c2cnnn2Cc2ccco2)cc1
inactive: dose: 100.0 mg/kg/injection, schedule: Q04DX002 (ip), vehicle: Klucel (hydroxypropylcellulose) (HPC) 105 % of control | dose: 200.0 mg/kg/injection, schedule: Q04DX002 (ip), vehicle: Klucel (hydroxypropylcellulose) (HPC) 100 % of control | dose: 400.0 mg/kg/injection, schedule: Q04DX002 (ip), vehicle: Klucel (hydroxypropylcellulose) (HPC) 102 % of control

OC(c1ccccc1I1OC(C(F)(F)F)(C(F)(F)F)c2ccccc21)(C(F)(F)F)C(F)(F)F (tested in a mixture with another compound)
inactive: dose: 1.56 mg/kg/injection, schedule: Q01DX005 (ip), vehicle: Klucel (hydroxypropylcellulose) (HPC) 99 % of control | dose: 3.12 mg/kg/injection, schedule: Q01DX005 (ip), vehicle: Klucel (hydroxypropylcellulose) (HPC) 93 % of control | dose: 6.25 mg/kg/injection, schedule: Q01DX005 (ip), vehicle: Klucel (hydroxypropylcellulose) (HPC) 98 % of control

CCOC(=O)/C=C(/C)SC1=CC(=O)c2ccccc2C1=O
inactive: dose: 1.56 mg/kg/injection, schedule: Q01DX009 (ip), vehicle: saline 91 % of control | dose: 6.25 mg/kg/injection, schedule: Q01DX009 (ip), vehicle: saline 98 % of control | [1] 119 % of control | dose: 12.5 mg/kg/injection, schedule: Q01DX009 (ip), vehicle: saline 100 % of control

c1ccc(CNc2nc(NCc3ccccc3)c3cn[nH]c3n2)cc1
inactive: dose: 25.0 mg/kg/injection, schedule: Q01DX009 (ip), vehicle: Klucel (hydroxypropylcellulose) (HPC) 98 % of control | [4] 110 % of control | [5] 103 % of control | [6] 100 % of control

COc1nc(NC2OC(CO)C(O)C(O)C2O)c(Cl)c(=O)n1C (stereo not given)
inactive: dose: 60.0 mg/kg/injection, schedule: Q01DX005 (ip), vehicle: saline with Tween-80 94 % of control | dose: 120.0 mg/kg/injection, schedule: Q01DX005 (ip), vehicle: saline with Tween-80 93 % of control | dose: 240.0 mg/kg/injection, schedule: Q01DX005 (ip), vehicle: saline with Tween-80 97 % of control

CC(=O)Nc1ccc(N=Nc2c(O)c(S(=O)(=O)O)cc3cc(S(=O)(=O)O)ccc23)cc1
inactive: [7] 102 % of control | [8] 97 % of control | [9] 103 % of control

O=C1NC(CCCl)C(=O)NC1CCCl (stereo not given)
inactive: [10] 96 % of control | [2] 110 % of control | dose: 50.0 mg/kg/injection, schedule: Q04DX003 (ip), vehicle: saline with Tween-80 95 % of control | [11] 100 % of control | [3] 95 % of control | [12] 100 % of control | [13] 100 % of control | [14] 110 % of control | [15] 100 % of control

Cn1c(O)c(N=NC(=S)NC(=O)C23CC4CC(CC(C4)C2)C3)c2ccccc21
inactive: dose: 1.56 mg/kg/injection, schedule: Q01DX005 (ip), vehicle: saline with Tween-80 96 % of control | dose: 3.12 mg/kg/injection, schedule: Q01DX005 (ip), vehicle: saline with Tween-80 97 % of control | dose: 6.25 mg/kg/injection, schedule: Q01DX005 (ip), vehicle: saline with Tween-80 103 % of control | [10] 86 % of control | [13] 89 % of control

Cc1ccc(C)[nH]1
inactive: dose: 12.5 mg/kg/injection, schedule: Q01DX001 (ip), vehicle: alcohol 109 % of control | dose: 25.0 mg/kg/injection, schedule: Q01DX001 (ip), vehicle: alcohol 111 % of control | dose: 50.0 mg/kg/injection, schedule: Q01DX001 (ip), vehicle: alcohol 101 % of control and 102 % of control

Nc1ccc(-c2ccc(N=C(/C=N/O)NO)cc2)cc1
inactive: [16] 102 % of control | [17] 100 % of control | dose: 200.0 mg/kg/injection, schedule: Q01DX005 (ip), vehicle: Klucel (hydroxypropylcellulose) (HPC) 94 % of control

O=C(Nc1nnc(-c2ccccc2)s1)c1cc(=O)c2ccccc2o1
inactive: [10] 93 % of control | [11] 96 % of control | [13] 92 % of control

CC(C)(C)C(=O)OCCN(CCOC(=O)C(C)(C)C)C(=O)COC(=O)C(C)(C)C
inactive: [2] 96 % of control | [3] 94 % of control | [14] 100 % of control

COc1ccc(S(=O)(=O)N/N=C/c2ncc[nH]2)cc1
inactive: dose: 25.0 mg/kg/injection, schedule: Q01DX005 (ip), vehicle: saline with Tween-80 99 % of control | [10] 99 % of control | [11] 100 % of control

CC(=O)OCC1CN2CC1(c1ccccc1)C(=O)NC2=O (stereo not given)
inactive: dose: 100.0 mg/kg/injection, schedule: Q01DX001 (ip), vehicle: saline 102 % of control | dose: 200.0 mg/kg/injection, schedule: Q01DX001 (ip), vehicle: saline 102 % of control | dose: 400.0 mg/kg/injection, schedule: Q01DX001 (ip), vehicle: saline 100 % of control

CCN1C(C)N1P(=S)(OC1CC(C)(C)N(O)C(C)(C)C1)OC1CC(C)(C)N(O)C(C)(C)C1 (stereo not given)
inactive: [16] 93 % of control | [17] 86 % of control

CCCC(C)C1(CC(C)O)C(=O)NC(=O)NC1=O (stereo not given)
inactive: [4] 104 % of control | [5] 104 % of control | [6] 100 % of control

COc1cc(C(=O)CO)cc(OC)c1OC(C)=O
inactive: [12] 104 % of control and 105 % of control | [15] 116 % of control

NC(CC(C(=O)O)c1ccccc1)C(=O)O (stereo not given)
inactive: [2] 106 % of control | [3] 94 % of control | [14] 94 % of control

O=C(O)c1cnc2cc3c(cc2c1Nc1cccc(C(F)(F)F)c1)OCO3
inactive: dose: 60.0 mg/kg/injection, schedule: Q01DX005 (ip), vehicle: Klucel (hydroxypropylcellulose) (HPC) 99 % of control | dose: 120.0 mg/kg/injection, schedule: Q01DX005 (ip), vehicle: Klucel (hydroxypropylcellulose) (HPC) 96 % of control | dose: 240.0 mg/kg/injection, schedule: Q01DX005 (ip), vehicle: Klucel (hydroxypropylcellulose) (HPC) 96 % of control

CN1CNC(=O)NC1
inactive: [7] 107 % of control | [8] 100 % of control and 106 % of control | [9] 99 % of control and 101 % of control

From PubChem BioAssay AID330 (DTP/NCI, 2004)
